Columns and labels:
[1] = tested on: TNF-α producing cells; assay: Ex-vivo ELISpot of TNF-α producing spleen cells from supplemented mice with zymosan-induced ear inflammation (Example 2); assay type: in vivo; details: 1 μg/ml LPS, after three days of oral supplementation
Procedure: The spleen was removed and pushed through a cell strainer. Red blood cell lysis was performed in 5 ml of could lysis buffer (4.15 g NH4Cl, 0.5 g KHCO3 and 18.6 mg Na2EDTA in 1 liter water at pH 7,3) for 5 minutes. Cells were washed twice in could RPMI (Invitrogen, Merelbeke, Belgium) and after centrifugation diluted to a concentration of 1.10^7 cells/ml. TNF-α producing cells were detected by ELISpot assay in the absence or presence of 1 μg/ml lipopolysaccharide (Sigma) (example 2).
Spleen cells were collected from mice with a zymosan-induced inflammation in the ear after three days of oral supplementation with water (=control), lactoferrin (LF), glycine or a combination of LF and glycine. The number of TNF-α producing cells was determined using an ELISpot assay. LF and glycine inhibit the LPS stimulated number of TNF producing cells by 92% and 97% respectively (back to not zymosan treated control levels). The combination of glycine and lactoferrin inhibited the number of TNF-α positive cells 50% below the […] injected control. This unexpected high rate of inhibition makes the combination of glycine with lactoferrin an excellent choice for the treatment of inflammatory diseases.

[2] = tested on: Balb/C mice; assay: Zymosan-induced ear swelling in an inflammatory mouse model (Example 1); assay type: in vivo; details: daily gavage 0.1 mg lactoferrin and/or 50 mg glycine, versus non-supplemented mice
Procedure: Balb/C mice (8 weeks of age, Charles River, Maastricht, The Netherlands) were randomly assigned two control and three test groups and supplemented daily for three days with 0.1 mg lactoferrin (DMV, Veghel, The Netherlands), 50 mg glycine (Sigma, Zwijndrecht, The Netherlands) or a combination of both components (test groups 3, 4 and 5 respectively) or vehicle (control groups 1 and 2) was administered by gavage. At day two of the supplementation ear thickness was measured using a micrometer (Mitutoyo Digimatic, Veenendaal, The Netherlands) Subsequently 25 μl 0.5% zymosan (Sigma) in PBS (group 2-5) or vehicle (group 1) was injected subcutaneously in both ears. Ear thickness was measured 3, 6 and 24 hours (example 1) after injection after which the animals were sacrificed.
In mice injected in the ear with zymosan, lactoferrin (LF) and glycine (Gly) supplemented mice show a highest decrease in ear swelling when compared to non-supplemented mice, see Table 1. A clear synergistic effect of LF and Gly is observed.

NCC(=O)O [Glycine, glycine]
Inhibition of the LPS stimulated number of TNF producing cells [1]: 97% | Decrease in ear swelling ([2]; 3 hrs after zymosan injection in ears): 10 ± 16 | Decrease in ear swelling ([2]; 6 hrs after zymosan injection in ears): 28 ± 20

Source: patent US20100215631A1, “ANTI-INFLAMMATORY COMPOSITION COMPRISING GLYCINE AND LACTOFERRIN AND THE USE THEREOF” (priority 2006, published 2010)
